# Measurements as given in the NIST ThermoML archive (doi:10.1021/acs.jced.6b00350).
# Where “and” joins values, the source holds several entries; their conditions need not be identical. Equal values may be shown once. Numbers after ± are expanded uncertainties.
# Conditions: Liquid, Hot wire method
smiles,measurement,setting,value
"FC(F)CC(F)(F)F [1,1,1,3,3-pentafluoropropane]",thermal conductivity,"262.46 K, 31214 kPa",0.1107 ± 0.0014 W/m/K
same,thermal conductivity,"262.47 K, 25250 kPa",0.1091 ± 0.0014 W/m/K
same,thermal conductivity,"262.47 K, 31210 kPa",0.1107 ± 0.0014 W/m/K
same,thermal conductivity,"262.48 K, 8852 kPa",0.1036 ± 0.0013 W/m/K
same,thermal conductivity,"262.48 K, 14086 kPa",0.1051 ± 0.0013 W/m/K
same,thermal conductivity,"262.48 K, 14126 kPa",0.1053 ± 0.0013 W/m/K
same,thermal conductivity,"262.49 K, 4309 kPa",0.1016 ± 0.0013 W/m/K
same,thermal conductivity,"262.49 K, 4315 kPa",0.1017 ± 0.0013 W/m/K
same,thermal conductivity,"262.5 K, 19581 kPa",0.1068 ± 0.0014 W/m/K
same,thermal conductivity,"262.51 K, 19565 kPa",0.1063 ± 0.0014 W/m/K
same,thermal conductivity,"262.54 K, 274 kPa",0.09981 ± 0.0013 W/m/K
same,thermal conductivity,"262.55 K, 264 kPa",0.09976 ± 0.0013 W/m/K
same,thermal conductivity,"262.84 K, 36891 kPa",0.1121 ± 0.0014 W/m/K
same,thermal conductivity,"262.84 K, 36917 kPa",0.112 ± 0.0014 W/m/K
same,thermal conductivity,"262.84 K, 43922 kPa",0.1137 ± 0.0014 W/m/K
same,thermal conductivity,"262.85 K, 43951 kPa",0.1138 ± 0.0014 W/m/K
same,thermal conductivity,"262.85 K, 51258 kPa",0.1158 ± 0.0015 W/m/K
same,thermal conductivity,"262.86 K, 51253 kPa",0.1158 ± 0.0015 W/m/K
same,thermal conductivity,"262.86 K, 58802 kPa",0.1175 ± 0.0015 W/m/K
same,thermal conductivity,"262.87 K, 58823 kPa",0.1177 ± 0.0015 W/m/K
same,thermal conductivity,"262.87 K, 68778 kPa",0.12 ± 0.0015 W/m/K
same,thermal conductivity,"262.87 K, 68811 kPa",0.1201 ± 0.0015 W/m/K
same,thermal conductivity,"262.89 K, 68892 kPa",0.1203 ± 0.0015 W/m/K
same,thermal conductivity,"262.9 K, 68869 kPa",0.1204 ± 0.0015 W/m/K
same,thermal conductivity,"262.97 K, 25291 kPa",0.1088 ± 0.0014 W/m/K
same,thermal conductivity,"262.97 K, 31137 kPa",0.1104 ± 0.0014 W/m/K
same,thermal conductivity,"262.97 K, 31171 kPa",0.1105 ± 0.0014 W/m/K
same,thermal conductivity,"262.98 K, 25286 kPa",0.1085 ± 0.0014 W/m/K
same,thermal conductivity,"263 K, 8795 kPa",0.1032 ± 0.0013 W/m/K
same,thermal conductivity,"263 K, 14094 kPa",0.105 ± 0.0013 W/m/K
same,thermal conductivity,"263 K, 14117 kPa",0.1048 ± 0.0013 W/m/K
same,thermal conductivity,"263.01 K, 8802 kPa",0.1032 ± 0.0013 W/m/K
same,thermal conductivity,"263.01 K, 19580 kPa",0.1068 ± 0.0014 W/m/K
same,thermal conductivity,"263.01 K, 19587 kPa",0.1069 ± 0.0014 W/m/K
same,thermal conductivity,"263.02 K, 4283 kPa",0.1017 ± 0.0013 W/m/K
same,thermal conductivity,"263.04 K, 4280 kPa",0.1019 ± 0.0013 W/m/K
same,thermal conductivity,"263.09 K, 251 kPa",0.09992 ± 0.0013 W/m/K
same,thermal conductivity,"263.09 K, 258 kPa",0.1003 ± 0.0013 W/m/K
same,thermal conductivity,"263.37 K, 43936 kPa",0.1139 ± 0.0014 W/m/K
same,thermal conductivity,"263.37 K, 51250 kPa",0.1158 ± 0.0015 W/m/K
same,thermal conductivity,"263.37 K, 68817 kPa",0.1201 ± 0.0015 W/m/K
same,thermal conductivity,"263.38 K, 43899 kPa",0.1139 ± 0.0014 W/m/K
same,thermal conductivity,"263.38 K, 51246 kPa",0.1158 ± 0.0015 W/m/K
same,thermal conductivity,"263.38 K, 58767 kPa",0.1179 ± 0.0015 W/m/K
same,thermal conductivity,"263.38 K, 58789 kPa",0.1175 ± 0.0015 W/m/K
same,thermal conductivity,"263.38 K, 68795 kPa",0.12 ± 0.0015 W/m/K
same,thermal conductivity,"263.39 K, 68867 kPa",0.1202 ± 0.0015 W/m/K
same,thermal conductivity,"263.39 K, 68877 kPa",0.1202 ± 0.0015 W/m/K
same,thermal conductivity,"281.24 K, 123 kPa",0.09294 ± 0.0012 W/m/K
same,thermal conductivity,"281.26 K, 5085 kPa",0.09534 ± 0.0012 W/m/K
same,thermal conductivity,"281.26 K, 10502 kPa",0.09742 ± 0.0013 W/m/K
same,thermal conductivity,"281.26 K, 16109 kPa",0.09972 ± 0.0013 W/m/K
same,thermal conductivity,"281.27 K, 5081 kPa",0.09537 ± 0.0012 W/m/K
same,thermal conductivity,"281.27 K, 10497 kPa",0.09773 ± 0.0013 W/m/K
same,thermal conductivity,"281.27 K, 16120 kPa",0.09962 ± 0.0013 W/m/K
same,thermal conductivity,"281.27 K, 36450 kPa",0.1067 ± 0.0014 W/m/K
same,thermal conductivity,"281.28 K, 29163 kPa",0.1037 ± 0.0013 W/m/K and 0.1042 ± 0.0013 W/m/K
same,thermal conductivity,"281.28 K, 36455 kPa",0.1069 ± 0.0014 W/m/K
same,thermal conductivity,"281.29 K, 22340 kPa",0.1017 ± 0.0013 W/m/K and 0.1016 ± 0.0013 W/m/K
same,thermal conductivity,"281.31 K, 44258 kPa",0.1094 ± 0.0014 W/m/K
same,thermal conductivity,"281.32 K, 44270 kPa",0.1086 ± 0.0014 W/m/K
same,thermal conductivity,"281.36 K, 52956 kPa",0.1121 ± 0.0014 W/m/K
same,thermal conductivity,"281.37 K, 61439 kPa",0.1132 ± 0.0014 W/m/K
same,thermal conductivity,"281.37 K, 61447 kPa",0.1138 ± 0.0014 W/m/K
same,thermal conductivity,"281.39 K, 68582 kPa",0.1153 ± 0.0015 W/m/K
same,thermal conductivity,"281.4 K, 68575 kPa",0.1156 ± 0.0015 W/m/K
same,thermal conductivity,"281.68 K, 36448 kPa",0.1069 ± 0.0014 W/m/K
same,thermal conductivity,"281.69 K, 123 kPa",0.09324 ± 0.0012 W/m/K
same,thermal conductivity,"281.69 K, 16102 kPa",0.09989 ± 0.0013 W/m/K
same,thermal conductivity,"281.69 K, 16110 kPa",0.0999 ± 0.0013 W/m/K
same,thermal conductivity,"281.69 K, 36460 kPa",0.1069 ± 0.0014 W/m/K
same,thermal conductivity,"281.7 K, 123 kPa",0.09319 ± 0.0012 W/m/K
same,thermal conductivity,"281.7 K, 10499 kPa",0.09772 ± 0.0013 W/m/K
same,thermal conductivity,"281.7 K, 29156 kPa",0.1046 ± 0.0013 W/m/K
same,thermal conductivity,"281.71 K, 10506 kPa",0.09793 ± 0.0013 W/m/K
same,thermal conductivity,"281.71 K, 29164 kPa",0.1045 ± 0.0013 W/m/K
same,thermal conductivity,"281.71 K, 44250 kPa",0.109 ± 0.0014 W/m/K
same,thermal conductivity,"281.72 K, 5099 kPa",0.09526 ± 0.0012 W/m/K
same,thermal conductivity,"281.72 K, 22328 kPa",0.1023 ± 0.0013 W/m/K
same,thermal conductivity,"281.72 K, 22339 kPa",0.1018 ± 0.0013 W/m/K
same,thermal conductivity,"281.72 K, 44261 kPa",0.1096 ± 0.0014 W/m/K
same,thermal conductivity,"281.73 K, 5092 kPa",0.09542 ± 0.0012 W/m/K
same,thermal conductivity,"281.74 K, 52967 kPa",0.1113 ± 0.0014 W/m/K
same,thermal conductivity,"281.74 K, 61451 kPa",0.1132 ± 0.0014 W/m/K
same,thermal conductivity,"281.75 K, 52979 kPa",0.1116 ± 0.0014 W/m/K
same,thermal conductivity,"281.75 K, 61458 kPa",0.1139 ± 0.0014 W/m/K
same,thermal conductivity,"281.78 K, 68577 kPa",0.1148 ± 0.0015 W/m/K
same,thermal conductivity,"281.78 K, 68579 kPa",0.1154 ± 0.0015 W/m/K
same,thermal conductivity,"282.14 K, 36443 kPa",0.1066 ± 0.0014 W/m/K
same,thermal conductivity,"282.14 K, 36448 kPa",0.1061 ± 0.0014 W/m/K
same,thermal conductivity,"282.16 K, 44239 kPa",0.109 ± 0.0014 W/m/K
same,thermal conductivity,"282.16 K, 44256 kPa",0.1087 ± 0.0014 W/m/K
same,thermal conductivity,"282.17 K, 29157 kPa",0.1038 ± 0.0013 W/m/K
same,thermal conductivity,"282.17 K, 29166 kPa",0.1045 ± 0.0013 W/m/K
same,thermal conductivity,"282.18 K, 16109 kPa",0.09967 ± 0.0013 W/m/K
same,thermal conductivity,"282.18 K, 52974 kPa",0.1114 ± 0.0014 W/m/K
same,thermal conductivity,"282.18 K, 61442 kPa",0.114 ± 0.0014 W/m/K
same,thermal conductivity,"282.18 K, 61445 kPa",0.1137 ± 0.0014 W/m/K
same,thermal conductivity,"282.19 K, 16097 kPa",0.09999 ± 0.0013 W/m/K
same,thermal conductivity,"282.19 K, 52971 kPa",0.1111 ± 0.0014 W/m/K
same,thermal conductivity,"282.2 K, 10491 kPa",0.09788 ± 0.0013 W/m/K
same,thermal conductivity,"282.2 K, 22326 kPa",0.1018 ± 0.0013 W/m/K
same,thermal conductivity,"282.2 K, 22330 kPa",0.1022 ± 0.0013 W/m/K
same,thermal conductivity,"282.21 K, 122 kPa",0.09344 ± 0.0012 W/m/K
same,thermal conductivity,"282.21 K, 123 kPa",0.09288 ± 0.0012 W/m/K
same,thermal conductivity,"282.21 K, 10493 kPa",0.0975 ± 0.0013 W/m/K
same,thermal conductivity,"282.21 K, 68577 kPa",0.1158 ± 0.0015 W/m/K
same,thermal conductivity,"282.22 K, 5074 kPa",0.09546 ± 0.0012 W/m/K
same,thermal conductivity,"282.22 K, 68599 kPa",0.1157 ± 0.0015 W/m/K
same,thermal conductivity,"282.23 K, 5088 kPa",0.0957 ± 0.0012 W/m/K
same,thermal conductivity,"282.64 K, 61432 kPa",0.1136 ± 0.0014 W/m/K
same,thermal conductivity,"282.65 K, 36437 kPa",0.1064 ± 0.0014 W/m/K
same,thermal conductivity,"282.65 K, 44235 kPa",0.109 ± 0.0014 W/m/K
same,thermal conductivity,"282.65 K, 61439 kPa",0.1136 ± 0.0014 W/m/K
same,thermal conductivity,"282.66 K, 44247 kPa",0.1092 ± 0.0014 W/m/K
same,thermal conductivity,"282.67 K, 52971 kPa",0.1109 ± 0.0014 W/m/K
same,thermal conductivity,"282.67 K, 52972 kPa",0.1115 ± 0.0014 W/m/K
same,thermal conductivity,"282.68 K, 29156 kPa",0.104 ± 0.0013 W/m/K
same,thermal conductivity,"282.68 K, 29162 kPa",0.104 ± 0.0013 W/m/K
same,thermal conductivity,"282.68 K, 68589 kPa",0.1157 ± 0.0015 W/m/K
same,thermal conductivity,"282.69 K, 68577 kPa",0.1155 ± 0.0015 W/m/K
same,thermal conductivity,"282.71 K, 16110 kPa",0.09975 ± 0.0013 W/m/K and 0.09954 ± 0.0013 W/m/K
same,thermal conductivity,"282.72 K, 22340 kPa",0.1019 ± 0.0013 W/m/K
same,thermal conductivity,"282.73 K, 22342 kPa",0.1021 ± 0.0013 W/m/K
same,thermal conductivity,"282.74 K, 10500 kPa",0.09762 ± 0.0013 W/m/K
same,thermal conductivity,"282.77 K, 5087 kPa",0.09576 ± 0.0012 W/m/K
same,thermal conductivity,"282.78 K, 123 kPa",0.09344 ± 0.0012 W/m/K and 0.09326 ± 0.0012 W/m/K
same,thermal conductivity,"282.78 K, 5079 kPa",0.0959 ± 0.0012 W/m/K
same,thermal conductivity,"283.17 K, 61441 kPa",0.1135 ± 0.0014 W/m/K
same,thermal conductivity,"283.17 K, 61445 kPa",0.1138 ± 0.0014 W/m/K
same,thermal conductivity,"283.19 K, 68547 kPa",0.1156 ± 0.0015 W/m/K
same,thermal conductivity,"283.19 K, 68582 kPa",0.1158 ± 0.0015 W/m/K
same,thermal conductivity,"283.2 K, 36442 kPa",0.1068 ± 0.0014 W/m/K
same,thermal conductivity,"283.2 K, 36446 kPa",0.1068 ± 0.0014 W/m/K
same,thermal conductivity,"283.2 K, 44231 kPa",0.109 ± 0.0014 W/m/K
same,thermal conductivity,"283.2 K, 44239 kPa",0.1089 ± 0.0014 W/m/K
same,thermal conductivity,"283.2 K, 52973 kPa",0.1113 ± 0.0014 W/m/K
same,thermal conductivity,"283.21 K, 52984 kPa",0.1112 ± 0.0014 W/m/K
